{"source": "ChEMBL document CHEMBL1255464", "about": "“Ethambutol optimal clinical dose and susceptibility breakpoint identification by use of a novel pharmacokinetic-pharmacodynamic model of disseminated intracellular Mycobacterium avium” (Antimicrob Agents Chemother, 2010)", "key": {"[1]": {"system": "Mycobacterium avium", "assay": "Antimycobacterial activity against Mycobacterium avium ATCC 700898 infected in human THP1 cells", "format": "functional, THP-1"}, "[2]": {"system": "THP-1", "assay": "Cytotoxicity against human THP1 cells", "format": "cell-based"}, "[3]": {"system": "Mycobacterium avium", "assay": "Antimycobacterial activity against Mycobacterium avium ATCC 700898 infected in human THP1 cells assessed as extracellular bacterial killing after 7 days", "format": "functional, organism-based", "conditions": "ATCC 700898, THP-1, 168 h"}, "[4]": {"system": "Mycobacterium avium", "assay": "Antimycobacterial activity against Mycobacterium avium ATCC 700898 infected in human THP1 cells assessed as extracellular bacterial killing", "format": "functional", "conditions": "ATCC 700898, THP-1"}, "[5]": {"system": "Mycobacterium avium", "assay": "Antimycobacterial activity against Mycobacterium avium ATCC 700898 infected in human THP1 cells assessed as intracellular bacterial killing", "format": "functional", "conditions": "ATCC 700898, THP-1"}, "[6]": {"system": "Mycobacterium avium", "assay": "Antimycobacterial activity against Mycobacterium avium ATCC 700898 infected in human THP1 cells assessed as intracellular bacterial killing after 7 days", "format": "functional, organism-based", "conditions": "ATCC 700898, THP-1, 168 h"}}}
{"smiles": "CC[C@@H](CO)NCCN[C@@H](CC)CO", "note": "[ETHAMBUTOL]", "values": [{"measurement": "MIC", "setting": "[1]", "result": 8, "unit": "µg/mL"}, {"measurement": "Activity", "setting": "[2]", "result": "Non-toxic"}, {"measurement": "EC50", "setting": "[3]", "result": 5.38, "unit": "µg/mL"}, {"measurement": "Emax", "setting": "[4]", "result": 5.54, "unit": "log10 CFU/ml"}, {"measurement": "Emax", "setting": "[5]", "result": 0.67, "unit": "log10 CFU/ml"}, {"measurement": "EC50", "setting": "[6]", "result": 7.93, "unit": "µg/mL"}]}
